{"source": "patent US6451972B1", "about": "“Peptido-mimetic compounds containing RGD sequence useful as integrin inhibitors” (Sigma-Tau Industrie Farmaceutiche Riunite S.p.A., priority 1998, dated 2002)", "key": {"[1]": {"system": "HMEC cells adhesion to Vitronectin", "test": "Adhesion assay on vitronectin, HMEC cells", "format": "cell-based", "method": "(§1) Ninety-six-well plates (Falcon) were coated with either fibronectin or vitronectin (both at […] in phosphate buffered saline) overnight at 4° C. Cells were detached using EDTA (1 mM)/trypsine (0.25%) and resuspended in own medium described above. Approximately 40,000 cells/[…] were applied for each well and allowed to adhere for 60 min at 37° C. in presence of different amounts of RGD peptides. For all experiments the non-adherent cells were removed with PBS and the remaining cells were fixed with 4% paraformaldehyde for 10 min.\n(§2) Cells were stained with 1% toluidine blue for 10 min and rinsed with water.\n(§3) Stained cells were solubilized with 1% SDS and quantified on a microtiter plate reader at 600 nm.\nExperiments described were performed in quadruplicate and repeated a minimum of three times.\nTo asses the ability of ST1646 peptide to compete with vitronectin in adhesion assay also on other cells type, we performed this experiment using microvascular endothelial cells (HMEC), human prostate carcinoma cells (PC3) and murine lung carcinoma cells (M109). Table 6 (a, b and c) show a good activity of the ST1646 peptide in inhibiting adhesion of all cells type. […]\n(§4) The percentages of adhesion inhibition refer to 1.5 μM concentration of each peptide and were calculated by the following formula (control-sample/control×100) where control was RGD untreated sample."}, "[2]": {"system": "bovine microvascular endothelial cells (BMEC) adhesion to Fibronectin", "test": "Adhesion inhibition of BMEC to fibronectin", "format": "cell-based", "method": "(§5) Bovine microvascular endothelial cells (BMEC) were maintained in DMEM supplemented with 20% foetal calf serum, 50 units/ml heparin, 50 μg/ml bovine brain extract, 100 units/ml gentamycin.\n(§6) BMEC were cultured on 1% gelatine-coated culture flasks and employed in experiments between passage 6-12.\nas §1, §2, §3\n(§7) Experiments described were performed in quadruplicate and repeated a minimum of three times. […]\n(§8) The percentages of adhesion inhibition refer to 100 μM concentration of each peptide of and it's calculated by the following formula (control-sample/control×100) where control was RGD untreated sample. […] The t-test has been calculated, using the Mann Witney non parametric test, by the instat program. […]"}, "[3]": {"system": "bovine microvascular endothelial cells (BMEC) adhesion to Vitronectin", "test": "Adhesion inhibition of BMEC to vitronectin", "format": "cell-based", "method": "as §5, §6, §1, §2, §3, §7\nas §8, with “µM” for “μM”"}, "M109 lung carcinoma": {"system": "M109 lung carcinoma", "test": "Antitumor and antimetastatic activity on M109 lung carcinoma-bearing Balb/c mice", "format": "in vivo", "conditions": "200 μg/mouse (10 mg/kg) i.p. qdx9; lung metastases at day 16; untreated group 34", "method": "Balb/c mice were injected i.m. with M109 lung carcinoma cells (3×10^5 cells/mouse) into the hind leg muscle.\nTumors were excised at day 10th after tumor implant. Mice were sacrificed at day 16th from tumor implant and lungs were removed. The number of lung metastases has been evaluated on tumor-excised mice (3 mice/group) using a dissecting microscope.\nTVI % (tumor volume inhibition)=100−[(mean tumor weight of treated group/mean tumor weight of control group)×100]. Calculated on day 16th after tumor implant (just before mice sacrifice) on nonoperated mice."}, "[4]": {"system": "murine lung carcinoma cells (M109) adhesion to Vitronectin", "test": "Adhesion assay on vitronectin, M109 cells", "format": "cell-based", "method": "Murine lung carcinoma cells (M109) were purchased from American Type Collection Culture (ATCC) and maintained in RPMI supplemented with 10% foetal calf serum, 10 mM L-glutamine and 100 units/ ml gentamicin.\nas §1, §2, §3, §7, §4\nThe t-test has been calculated using the Mann Witney non parametric test, by the instat program. […]"}, "[5]": {"system": "human prostate carcinoma cells (PC3) adhesion to Vitronectin", "test": "Adhesion assay on vitronectin, PC3 cells", "format": "cell-based", "method": "Human prostate carcinoma cells (PC3) were purchased from American Type Collection Culture (ATCC) and maintained in RPMI supplemented with 10% foetal calf serum, 10 mM L-glutamine, 1% sodium piruvate and 100 units/ml gentamicin.\nas §1, §2, §3, §7, §4"}}}
{"smiles": "CC(C)[C@@H]1NC(=O)[C@@H](Cc2ccccc2)NC(=O)[C@H](CC(=O)O)NC(=O)CNC(=O)[C@H](CCCNC(=N)N)NC1=O", "note": "[KESSLER, cyclo (Arg-Gly-Asp-D-Phe-Val)]", "values": [{"measurement": "% Inhibition", "setting": "[1]; 1.5 μM peptide", "result": 39, "unit": "%"}, {"measurement": "IC50", "setting": "[1]; average of 3 experiments", "result": "4.23 ± 0.31", "unit": "µM"}, {"measurement": "% Inhibition", "setting": "[2]; BMEC on fibronectin, 100 μM concentration of each peptide, mean of 4 samples", "result": 30, "unit": "%"}, {"measurement": "IC50", "setting": "[2]; BMEC, fibronectin-coated plates, 100 to 0.6 μM tested, ± SD", "result": "> 100", "unit": "µM"}, {"measurement": "% Inhibition", "setting": "[3]; BMEC on vitronectin, 100 µM concentration of each peptide, mean of 4 samples", "result": 96, "unit": "%"}, {"measurement": "IC50", "setting": "[3]; BMEC, vitronectin-coated plates, 100 to 0.6 μM tested, ± SD", "result": "7.8 ± 1.2", "unit": "µM"}, {"measurement": "Mean no. of metastases", "setting": "M109 lung carcinoma", "result": 23}, {"measurement": "% Inhibition", "setting": "[4]; 1.5 μM peptide", "result": 70, "unit": "%"}, {"measurement": "IC50", "setting": "[4]; average of 3 experiments", "result": "0.46 ± 0.5", "unit": "µM"}, {"measurement": "% Inhibition", "setting": "[5]; 1.5 μM peptide", "result": 69, "unit": "%"}, {"measurement": "IC50", "setting": "[5]; average of 3 experiments", "result": "2.5 ± 0.2", "unit": "µM"}]}
